Values joined by “and” are separate entries in the source; they are usually repeats but may differ in a detail not shown here. Identical values can stand only once. Like-named read-outs stand apart in the source and are kept apart here. Where a SMILES comes first, the peptide text is derived from it. The star is where a group is joined. Cbz = O=C(OCc1ccccc1)*

Experiment [1] has as its system rats. As to conditions: cited from earlier work.
Experiment [2] concerns calpain. The conditions noted are these: cited from earlier work.
The subject of experiment [3] is proteolytic response to post-decapitation ischemia. The conditions noted are these: cited from earlier work.
The target in experiment [4] is calpain. The conditions noted are these: broken membrane preparations; cited from earlier work.
Experiment [5] concerns the target Muscle and erythrocyte calpain. The experiment can be described thus: In Vitro Assay of Calpain (fluorometric, t-Boc-Val-Leu-Lys-7-amido-4-methyl-coumarin substrate). The class given is biochemical. The conditions noted are these: In Vitro Calpain Inhibition. The protocol:
In Vitro Assay of Calpain in the Prescence of Calpain Inhibitors
Muscle and erythrocyte calpain were assayed by a fluorometric procedure using t-Boc-Val-Leu-Lys-7-amido-4-methyl-coumarin as the substrate, Sasaki et al., J. Biol. Chem. 259, 12489-12494 (1984). The enzyme calpain is commercially available and may be purchased from Sigma. The assay buffer, pH, assay techniques and calculation of the inhibitory constant (Ki) are similar to those described by Mehdi et al., Biochem. Biophys. Res. Commun. 157, 1117-1123 (1988).

Experiment [6] has as its system male spontaneously hypertensive rats. The experiment can be described thus: Neuroprotection in vivo, focal cerebral ischemia by permanent tandem occlusion of right middle cerebral artery and right common carotid artery. Details: species or system rat (spontaneously hypertensive). The protocol: Neuroprotection In Vivo With MDL 104,903 In a Model of Focal Cerebral Ischemia
For example, twelve male spontaneously hypertensive rats were divided into two groups: a vehicle-treated group and a calpain inhibitor-treated groups (MDL 104,903; 4×30 mg/kg cumulative doses). Ischemia was induced by permanent tandem occlusion of the right middle cerebral artery and right common carotid artery. Animals were killed 24 hours after surgery, and quantitative measurements of infarction volumes were performed using standard histological techniques and quantitative image analysis.

Setting [7] is: individual animal, inhibitor-treated group, 4×30 mg/kg I.V., 24 hours after surgery, 30 mg/kg.

Regarding `CC(C)[C@H](NC(=O)OCc1ccccc1)C(=O)N[C@H](C=O)Cc1ccccc1` [Cbz-Val-Phe-H] (Cbz-Val-Phe-aldehyde), the “reduction of infarction, edema, and calcium-activated proteolysis” value in experiment [1] (intravenous injections, cumulative doses of 30 mg/kg or 60 mg/kg) was “effective in reducing infarction, edema, and calcium-activated proteolysis”. The “volumes of cerebral infarction” value in experiment [1] (rats, versus saline-treated or vehicle-treated control animals) is on record as “significantly smaller”. Moreover, in experiment [2] (inhibitor of calpain), the cell penetration entry is on record as “cell-penetrating”. The Ki for calpain result in experiment [2] (intact cell systems) and in experiment [4] was “low” throughout. The “proteolytic response to post-decapitation ischemia” value in experiment [3] was “reduced”.

Turning to `CCCC(=O)O[C@@H]1OCN(C(=O)[C@@H](NC(=O)OCc2ccccc2)C(C)C)[C@H]1Cc1ccccc1` [MDL 103,821, [4S-[3(R*),4α,5β]]-[1-[[5-butyryloxy)-4-(phenylmethyl)-3-oxazolidinyl]carbonyl]-2-methylpropyl]-carbamic acid, phenylmethyl ester], the Ki in experiment [5] was found to be 1300 nM.

On to `CCCCC(CC)C(=O)O[C@@H]1OCN(C(=O)[C@@H](NC(=O)OCc2ccccc2)C(C)C)[C@H]1Cc1ccccc1` (stereo partly drawn) [MDL 104,092, [4S-[3(R*),4α,5β]]-[1-[[5-(2-ethylhexanoyl-oxy)-4-(phenylmethyl)-3-oxazolidinyl]carbonyl]-2-methylpropyl]-carbamic acid, phenylmethyl ester], for which the inhibition constant Ki in experiment [5] was 300 nM.

Turning to `CC(=O)O[C@@H]1OCN(C(=O)[C@@H](NC(=O)OCc2ccccc2)C(C)C)[C@H]1Cc1ccccc1` [MDL 104,860, [4S-[3(R*),4α,5β]]-[1-[[5-(acetyloxy)-4-(phenylmethyl)-3-oxazolidinyl]carbonyl]-2-methylpropyl]carbamic acid, phenylmethyl ester], affinity in experiment [5] was put at a Ki of 1450 nM.

Consider `CC(C)[C@H](NC(=O)OCc1ccccc1)C(=O)N1CO[C@@H](O)[C@@H]1Cc1ccccc1` [MDL 104,903, [4S-[3(R*),4α,5β]]-[1-[[5-hydroxy-4-(phenylmethyl)-3-oxazolidinyl]carbonyl]-2-methylpropyl]-carbamic acid, phenylmethyl ester], for which the “reduction in infarct volume” value in experiment [6] (4×30 mg/kg I.V. doses via femoral vein at 2 hour intervals beginning 5 min. after initiation of ischemia, 24 hours after surgery) is recorded as 20.5%. For the same compound, the “% of Reduction (Percentage of Infarct Reduction)” value in experiment [6] (comparison of mean values with vehicle group, 4×30 mg/kg I.V.) worked out at 20.24%. The “Brain Volume” value in experiment [6] (individual animal, inhibitor-treated group, 4×30 mg/kg I.V. at 2 hour intervals from 5 min after ischemia, 24 hours after surgery, 30 mg/kg) was 1307.52 mm^3 and 1309.36 mm^3 and 1257.24 mm^3 and 1313.62 mm^3 and 1333.44 mm^3 and 1326.46 mm^3. Also, in experiment [6] (setting [7]), the “Infarct Vol. v. Brain Vol.” value is 12.61% and 14.14% and 13.59% and 10.07% and 10.93%; the “Infarct Volume” value is 164.94 mm^3 and 185.16 mm^3 and 170.84 mm^3 and 178.58 mm^3 and 134.28 mm^3 and 144.92 mm^3. Also, the “Infarct Vol. v. Brain Vol., mean” value in experiment [6] (mean of inhibitor-treated group (animals 7-12), 4×30 mg/kg I.V., vehicle mean 15.66) was 12.49%. Moreover, in experiment [6] (mean of inhibitor-treated group (animals 7-12), 4×30 mg/kg I.V., vehicle mean 205.14), the “Infarct Volume, mean” value is on record as 163.12 mm^3. In experiment [6] (mean of inhibitor-treated group (animals 7-12), 4×30 mg/kg I.V., vehicle mean 1310.15), the “Brain Volume, mean” value is 1307.94 mm^3. The compound also returned a Ki in experiment [5] of 33 nM.

In experiment [5], `COc1ccc(CC(=O)O[C@@H]2OCN(C(=O)[C@@H](NC(=O)OCc3ccccc3)C(C)C)[C@H]2Cc2ccccc2)cc1` [MDL 105,236, [4S-[3(R*),4α,5β]]-[1-[[5-(4-methoxyphenyl-acetyloxy)--4-(phenylmethyl)-3-oxazolidinyl]carbonyl]-2-methylpropyl-1]-carbamic acid, phenylmethyl ester] showed a Ki of 1100 nM.

The compound `CC(C)[C@@H](C(=O)N1CO[C@@H](O)[C@@H]1Cc1ccccc1)N(C)C(=O)OCc1ccccc1` [MDL 105,423, [4S-[3(R*),4α,5β]]-[1-[[5-hydroxy-4-(phenylmethyl-3-oxazolidinyl]carbonyl]-2-methylpropyl]methyl-carbamic acid, phenylmethyl ester] had a Ki in experiment [5] of 2100 nM.

The compound `CCOC(=O)CCC(=O)O[C@@H]1OCN(C(=O)[C@@H](NC(=O)OCc2ccccc2)C(C)C)[C@H]1Cc1ccccc1` [MDL 105,608, [4S-[3(R*),4α,5β]]-[1-[[5-(ethylsuccinyloxy)-4-(phenylmethyl)-3-oxazolidinyl]carbonyl]-2-methylpropyl]-carbamic acid, phenylmethyl ester] yielded a Ki in experiment [5] of 700 nM.

Regarding `CC(C)[C@H](NC(=O)OCc1ccccc1)C(=O)N1CO[C@@H](OC(=O)N2CCOCC2)[C@@H]1Cc1ccccc1` [MDL 105,803, [4S-[3(R*),4α,5β]]-3-[3-methyl-1-oxo-2-[[(phenylmethoxy)carbonyl]amino]butyl]-4-(phenylmethyl)-5-oxazolidinyl ester, 4-morpholinecarboxylic acid], affinity in experiment [5] was put at a Ki of 2000 nM.

The compound “[4S-[3(R*),4α,5β]]-[1-[[5-(propionyloxy)-4-(phenylmethyl)-3-oxazolidinyl]carbonyl]-2-methylpropyl]-carbamic acid, phenylmethyl ester [MDL 105,387]” showed a Ki in experiment [5] of 1200 nM.

The values above are taken from patent US5691368A, “Substituted oxazolidine calpain and/or cathepsin B inhibitors” (Hoechst Marion Roussel, Inc., priority 1995, dated 1997).
